Test results: ChEMBL document CHEMBL6103545, “Discovery of GS-2278, a Potent and Selective LPAR1 Antagonist for the Treatment of Idiopathic Pulmonary Fibrosis” (J Med Chem, 2025)

What was measured:
[1] = Plasma protein binding in human assessed as unbound fraction incubated for 24 hrs by equilibrium dialysis based Rapidfire-QToF mass spectrometric analysis; assay type: ADME, cell-free
[2] = molecular target: T1, Lysophosphatidic acid receptor 1 (Homo sapiens, UniProt Q92633); test: Antagonist activity at LPA1 receptor in serum starved human TWNT-4 cells assessed as nuclear translocation pre-incubated for 1 hr followed by LPA stimulation and measured after 30 min by MRTF-A assay; assay type: cell-based
T1 sequence (Q92633 whole entry): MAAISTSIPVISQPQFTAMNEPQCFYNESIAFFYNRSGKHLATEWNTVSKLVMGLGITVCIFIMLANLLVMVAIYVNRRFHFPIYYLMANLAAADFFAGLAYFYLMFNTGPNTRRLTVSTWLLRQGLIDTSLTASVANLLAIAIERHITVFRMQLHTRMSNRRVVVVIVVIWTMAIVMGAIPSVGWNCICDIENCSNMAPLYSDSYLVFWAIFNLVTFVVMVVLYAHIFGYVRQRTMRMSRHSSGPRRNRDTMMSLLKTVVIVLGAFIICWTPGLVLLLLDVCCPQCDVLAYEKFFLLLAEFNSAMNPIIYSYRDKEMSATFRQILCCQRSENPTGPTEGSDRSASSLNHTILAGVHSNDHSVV

[3] = Lipophilicity, logD of compound at pH 7.4; assay type: physicochemical; settings: buffer
[4] = Apparent permeability across apical to basolateral side in cMDR1 knockout MDCK-II cells incubated upto 240 mins by RF-QToF analysis; assay type: ADME, cell-based, Canis lupus familiaris; settings: dog
[5] = molecular target: T1, Lysophosphatidic acid receptor 1; test: […] at LPA1 receptor in human TWNT-4 cells pre-incubated for 1 hr followed by 30 mins incubation in presence of 4% human serum albumin by MRTF-A assay; assay type: functional, cell-based
[6] = molecular target: T1, Lysophosphatidic acid receptor 1; test: […] at LPA1 receptor in human TWNT-4 cells assessed as nuclear translocation pre-incubated for 1 hr followed by 30 min incubation by MRTF-A assay; assay type: functional, cell-based
[7] = Drug excretion in bile-duct cannulated rat urine at 1 mg/kg, iv; assay type: ADME, organism-based; settings: read-out: Drug excretion
[8] = Dissociation constant, pKa of compound at 100 uM by capillary electrophoresis; assay type: physicochemical
[9] = Half-life in male Sprague-Dawley rat at 1 mg/kg, iv measured after 24 hrs by LC/MS/MS analysis; assay type: ADME, organism-based; settings: in vivo
[10] = Metabolic stability in male Sprague-Dawley rat liver microsomes assessed as intrinsic clearance at 1 uM by LC/MS/MS analysis; assay type: ADME, Microsome; settings: read-out: CLH (converted)
[11] = AUC (0 to 24 hrs) in male Sprague-Dawley rat at 5 mg/kg, po measured after 24 hrs by LC/MS/MS analysis; assay type: ADME, organism-based; settings: in vivo
[12] = Half-life in Beagle dog at 5 mg/kg, po measured after 24 hrs by LC/MS/MS analysis; assay type: ADME, organism-based, Canis lupus familiaris; settings: in vivo
[13] = Volume of distribution in cynomolgus monkey at 1 mg/kg, iv measured after 24 hrs by LC/MS/MS analysis; assay type: ADME, organism-based, Macaca fascicularis; settings: in vivo
[14] = Metabolic stability in Beagle dog liver microsomes assessed as intrinsic clearance at 1 uM by LC/MS/MS analysis; assay type: ADME, Canis lupus familiaris, Microsome; settings: read-out: CLH (converted)
[15] = Half-life in cynomolgus monkey at 5 mg/kg, po measured after 24 hrs by LC/MS/MS analysis; assay type: ADME, organism-based, Macaca fascicularis; settings: in vivo
[16] = Volume of distribution in Beagle dog at 1 mg/kg, iv measured after 24 hrs by LC/MS/MS analysis; assay type: ADME, organism-based, Canis lupus familiaris; settings: in vivo
[17] = Oral bioavailability in Beagle dog at 5 mg/kg measured after 24 hrs by LC/MS/MS analysis; assay type: ADME, organism-based, Canis lupus familiaris; settings: in vivo
[18] = Oral bioavailability in male Sprague-Dawley rat at 5 mg/kg measured after 24 hrs by LC/MS/MS analysis; assay type: ADME, organism-based; settings: in vivo
[19] = AUC (0 to 24 hrs) in cynomolgus monkey at 5 mg/kg, po measured after 24 hrs by LC/MS/MS analysis; assay type: ADME, organism-based, Macaca fascicularis; settings: in vivo
[20] = Volume of distribution in male Sprague-Dawley rat at 1 mg/kg, iv s measured after 24 hrs by LC/MS/MS analysis; assay type: ADME, organism-based; settings: in vivo
[21] = Metabolic stability in cynomolgus monkey liver microsomes assessed as intrinsic clearance at 1 uM by LC/MS/MS analysis; assay type: ADME, Macaca fascicularis, Microsome; settings: read-out: CLH (converted)
[22] = AUC (0 to 24 hrs) in Beagle dog at 5 mg/kg, po measured after 24 hrs by LC/MS/MS analysis; assay type: ADME, organism-based, Canis lupus familiaris; settings: in vivo
[23] = Oral bioavailability in cynomolgus monkey at 5 mg/kg measured after 24 hrs by LC/MS/MS analysis; assay type: ADME, organism-based, Macaca fascicularis; settings: in vivo

SMILES | EC50 [2] [nM] | logD [3] | fraction unbound at 24 h [1] | Papp A→B at 4 h [4] [×10⁻⁶ cm/s] | other results
C[C@@H](OC(=O)Nc1c(-c2ccc(NS(C)(=O)=O)cn2)nnn1C)c1cc(F)ccc1F | 122 | 2.1 | 0.18 | 16 | 
Cc1ccc(C(=O)Nc2ccc(-c3nnn(C)c3NC(=O)O[C@H](C)c3cc(F)cnc3F)nc2)cn1 | 109 | 1.7 | 0.32 | 7.2 | 
Cc1nc(-c2nnn(C)c2NC(=O)O[C@@H](c2ccccc2)C(F)(F)F)ccc1NS(C)(=O)=O | 45 | 2.5 | 0.2 | 18 | 
C[C@@H](OC(=O)Nc1c(-c2ccc(NC(=O)C34CC(C#N)(C3)C4)cn2)nnn1C)c1cc(F)cnc1F | 51 | 2 | 0.31 | 8.3 | 
Cc1nc(-c2nnn(C)c2NC(=O)O[C@H](C)c2ccccc2Cl)ccc1NS(C)(=O)=O | 11 | 2.5 | 0.13 | 27 | 
Cc1nc(-c2nnn(C)c2NC(=O)O[C@H](C)c2cc(F)ccc2F)ccc1NS(C)(=O)=O | 953 | 2.4 | 0.19 | 20 | 
CC(=O)Nc1ccc(-c2nnn(C)c2NC(=O)O[C@H](C)c2cc(F)cnc2F)nc1 | 1350 | 1.3 | 0.36 | 7.7 | 
Cc1nc(-c2nnn(C)c2NC(=O)O[C@H](C)c2cc(F)cnc2F)ccc1NS(C)(=O)=O | 124 | 1.7 | 0.15 | 8.8 | 
C[C@@H](OC(=O)Nc1c(-c2ccc(NS(=O)(=O)CC#N)cc2)nnn1C)c1ccccc1Cl | 32 | 2.2 |  |  | 
CCCCCCCC/C=C\CCCCCCCC(=O)OC[C@@H](O)COP(=O)(O)O [LYSOPHOSPHATIDIC ACID] |  |  |  |  | EC50 [5]: 306 nM; EC50 [6]: 47.3 nM
C[C@@H](OC(=O)Nc1c(-c2ccc(NC(=O)C3CC(F)(F)C3)cn2)nnn1C)c1cc(F)cnc1F | 21 | 2.4 | 0.21 | 15 | 
C[C@@H](OC(=O)Nc1c(-c2ccc(NC(=O)C3(C(F)F)CC3)cn2)nnn1C)c1cc(F)cnc1F | 5250 | 2.4 | 0.56 | 40 | 
Cc1nc(-c2nnn(C)c2NC(=O)O[C@H](C)c2cccnc2Cl)ccc1NS(C)(=O)=O | 109 | 1.5 | 0.17 | 5.9 | dose excreted [7]: 50%; pKa at 100 µM [8]: 7.1
C[C@@H](OC(=O)Nc1c(-c2ccc(NC(=O)c3ccc(C(F)(F)F)nc3)cn2)nnn1C)c1cc(F)cnc1F | 25 | 2.7 | 0.15 | 14 | 
C[C@@H](OC(=O)Nc1c(-c2ccc(NC(=O)C3(C#N)CC3)cn2)nnn1C)c1cc(F)cnc1F | 37 | 1.9 | 0.46 | 21 | 
C[C@@H](OC(=O)Nc1c(-c2ccc(NS(C)(=O)=O)cn2)nnn1C)c1cccc(F)c1 | 522 | 1.9 | 0.25 | 15 | 
C[C@@H](OC(=O)Nc1c(-c2ccc(NS(C)(=O)=O)cn2)nnn1C)c1cc(F)cnc1F | 35 | 1.5 | 0.31 | 3.2 | half-life [9]: 3 h; CLint scaled at 1 µM [10]: 18.5 mL/min/kg; AUC(0-t) at 24 h [11]: 5.4 µM·h; half-life [12]: 3.6 h; Vd [13]: 0.4 L/kg; CLint scaled at 1 µM [14]: 8.67 mL/min/kg; half-life [15]: 3.8 h; Vd [16]: 1 L/kg; bioavailability [17]: 100%; bioavailability [18]: 55%; AUC(0-t) at 24 h [19]: 13 µM·h; Vd [20]: 1 L/kg; CLint scaled at 1 µM [21]: 7.17 mL/min/kg; AUC(0-t) at 24 h [22]: 25 µM·h; bioavailability [23]: 45%
C[C@@H](OC(=O)Nc1c(-c2ccc(NS(C)(=O)=O)cn2)nnn1C)c1ccccc1 |  | 1.9 | 0.27 | 13 | 
Cc1nc(-c2nnn(C)c2NC(=O)O[C@H](CF)c2ccccc2)ccc1NS(C)(=O)=O | 31 | 1.9 | 0.29 | 17 | 

Further lines, with some results ahead:

EC50 [2] [nM] | logD [3] | SMILES | fraction unbound at 24 h [1] | Papp A→B at 4 h [4] [×10⁻⁶ cm/s] | other results
893 | 2.6 | CNS(=O)(=O)c1ccc(-c2nnn(C)c2NC(=O)O[C@H](C)c2ccccc2Cl)cc1 |  |  | 
1370 | 1.4 | Cc1nc(-c2nnn(C)c2NC(=O)O[C@H](C)c2cccnc2F)ccc1NS(C)(=O)=O | 0.38 | 5.6 | 
186 | 1.1 | C[C@@H](OC(=O)Nc1c(-c2ccc(NS(C)(=O)=O)cn2)nnn1C)c1cccnc1F | 0.3 | 4.4 | 
237 | 2.5 | C[C@@H](OC(=O)Nc1c(-c2ccc(O)cc2)nnn1C)c1ccccc1Cl |  |  | 
 | 2.2 | Cc1nc(-c2nnn(C)c2NC(=O)O[C@H](C)c2ccccc2)ccc1NS(C)(=O)=O | 0.2 | 27 | 
 | 1.7 | C[C@@H](OC(=O)Nc1c(-c2ccc(NS(C)(=O)=O)cn2)nnn1C)c1cc(F)cnc1Cl | 0.18 | 5.5 | 
7530 | 2.2 | CC(=O)N(C)c1ccc(-c2nnn(C)c2NC(=O)O[C@H](C)c2ccccc2Cl)cc1 |  |  | 
> 10000 | 3 | C[C@@H](OC(=O)Nc1c(-c2ccc(NS(=O)(=O)C(C)(C)C)cc2)nnn1C)c1ccccc1Cl |  |  | 
12 | 2.4 | C[C@@H](OC(=O)Nc1c(-c2ccc(NS(C)(=O)=O)cc2)nnn1C)c1ccccc1Cl |  |  | 
 | 3.2 | C[C@@H](OC(=O)Nc1c(-c2ccccc2)nnn1C)c1ccccc1Cl |  |  | 
83 | 1.8 | Cc1nc(-c2nnn(C)c2NC(=O)O[C@H](C)c2cc(F)cnc2Cl)ccc1NS(C)(=O)=O | 0.13 | 13 | 
20 | 3.3 | C[C@@H](OC(=O)Nc1c(-c2ccc(NC(=O)C(F)(F)F)cc2)nnn1C)c1ccccc1Cl |  |  | 
81 | 1.6 | Cn1nnc(-c2ccc(NS(C)(=O)=O)cn2)c1NC(=O)O[C@H](CF)c1ccccc1 | 0.27 | 5 | 
 | 2.7 | C[C@@H](OC(=O)Nc1c(-c2ccc(NC(=O)c3ccnc(C(F)(F)F)c3)cn2)nnn1C)c1cc(F)cnc1F | 0.14 | 4.6 | 
30 | 2.2 | C[C@@H](OC(=O)Nc1c(-c2ccc(NS(C)(=O)=O)cn2)nnn1C)c1ccccc1Cl |  | 19 | 
417 | 2.3 | C[C@@H](OC(=O)Nc1c(-c2ccc(N)cc2)nnn1C)c1ccccc1Cl |  |  | 
108 | 1.3 | C[C@@H](OC(=O)Nc1c(-c2ccc(NS(C)(=O)=O)cn2)nnn1C)c1cccnc1Cl | 0.26 | 2.8 | 
77 | 2.3 | C[C@@H](OC(=O)Nc1c(-c2ccc(NC(=O)C34CC(F)(C3)C4)cn2)nnn1C)c1cc(F)cnc1F | 0.33 | 11 | 
7920 | 1.3 | C[C@@H](OC(=O)Nc1c(-c2ccc(N)cn2)nnn1C)c1cc(F)cnc1F.Cl | 0.71 | 15 | 
576 | 2.2 | C[C@@H](OC(=O)Nc1c(-c2ccc(NC(=O)[C@@H]3CC3(F)F)cn2)nnn1C)c1cc(F)cnc1F | 0.35 | 12 | 
890 | 2.7 | C[C@@H](OC(=O)Nc1c(-c2ccc(N(C)S(C)(=O)=O)cc2)nnn1C)c1ccccc1Cl |  |  | 
 | 2.9 | C[C@@H](OC(=O)Nc1c(-c2ccc(S(=O)(=O)NC3CC3)cc2)nnn1C)c1ccccc1Cl |  |  | 
 | 2.2 | Cc1nc(-c2nnn(C)c2NC(=O)O[C@H](C)c2cccc(F)c2)ccc1NS(C)(=O)=O | 0.22 | 23 | 
 | 2.2 | C[C@@H](OC(=O)Nc1c(-c2ccc(S(N)(=O)=O)cc2)nnn1C)c1ccccc1Cl |  |  | 
